Measurements as given in US20030203857A1, “Remedies” (priority 2000, published 2003).
Where “and” joins values, the source holds several entries; their conditions need not be identical. Equal values may be shown once.

What was measured:
mouse = assay type: in vivo; settings: orally, single dose of 1 g/1 kg
[1] = test system: HGF production in MRC-5 cells; test: Enhancing activity for HGF production, MRC-5 cells, HGF ELISA of medium; assay type: cell-based, Human; settings: 24 hours, control = 100%
Protocol: MRC-5 cells (CCL 171: manufactured by DAINIPPON PHARMACEUTICAL CO., LTD., code. 02-021) were suspended in a DME medium containing 10% fetal bovine serum so as to have a concentration of 5×10^4 cells/cm^2. The suspension was put in a 48-well cell culture plate, and the cells were cultured at 37° C. in the presence of 5% CO2 gas for 24 hours. After culturing, the medium was exchanged. Thereafter, the sample was added, and the cells were cultured for another 24 hours. Subsequently, the medium was collected, and the amount of HGF in the medium was assayed using Quantikine Human Hepatocyte Growth Factor (HGF) ELISA Kit (manufactured by Funakoshi, code. RS-0641-00). […] Here, the addition of the sample was carried out by previously preparing aqueous solutions of the samples at various concentrations, and adding a given amount of each solution to the medium so as to have the above-mentioned final concentration. As the control, that with addition of a given amount of distilled water alone (final concentration of the sample: 0 μM) was used. The amount of HGF production was expressed as the relative value (%) when the HGF concentration in the cell culture medium of the control was defined as 100%. All experiments were carried out twice, and an average value was taken.

[2] = test system: NGF production in L-M cells; test: Enhancing activity for NGF production, L-M cells, NGF enzyme immunoassay of medium; assay type: cell-based, murine; settings: control = 100%
Protocol: L-M cells (ATCC CCL-1.2) from murine fibroblasts were suspended in an M199 medium (manufactured by ICN) containing 0.5% bactopeptone (manufactured by Gibco BRL) so as to have a concentration of 1.5×10^5 cells/ml. The suspension was put in a 96-well plate in an amount of 0.1 ml each well, and the cells were aseptically cultured. After culturing the cells for 3 days, the medium was removed therefrom, and exchanged with an M199 medium containing 0.5% bovine serum albumin (manufactured by Sigma). […] After the termination of the culture, the NGF concentration in the culture medium was determined by an enzyme immunoassay method (NGF Emax Immuno Assay System, manufactured by Promega). Incidentally, in the case where the final concentration of the iron-treated chlorogenic acid was 0 μM, a given amount of an aqueous solution obtained by an iron treatment in the absence of chlorogenic acid was added to the medium. In addition, for the purpose of comparison, the activity of the chlorogenic acid without the iron treatment was assayed in the same manner. As described above, that with addition of a given amount of distilled water alone (final concentration of chlorogenic acid without the iron treatment: 0 μM) was used as the control. The amount of NGF production was expressed as the relative value (%) when the NGF concentration in the cell culture medium of the control was defined as 100%. The experiment was carried out twice, and an average value was taken. The enhancing activity for NGF production of chlorogenic acid was enhanced by the iron treatment.

| Compound | Death after single oral administration (mouse) | Amount of HGF Production ([1]; 1 μM) | Amount of HGF Production ([1]; 10 μM) | Amount of HGF Production ([1]; 100 μM) | other results |
| --- | --- | --- | --- | --- | --- |
| O=C(/C=C/c1ccc(O)c(O)c1)O[C@H]1[C@H](O)C[C@](O)(C(=O)O)C[C@H]1O [cryptochlorogenic acid, 4-caffeoyl-quinic acid] | no cases of death |  |  |  |  |
| 3,5-dicaffeoylquinic acid |  | 142% | 206% | 290% |  |
| O=C(/C=C/c1ccc(O)c(O)c1)O[C@@H]1C[C@](O)(C(=O)O)C[C@@H](O)[C@H]1O [chlorogenic acid] | no cases of death | 105% | 122% | 302% | Amount of HGF Production ([1]; 50 μM (as chlorogenic acid)): 148%; Amount of HGF Production ([1]; 500 μM): 479%; Amount of HGF Production ([1]; 1000 μM): 624%; Amount of NGF Production ([2]; 125 μM, 20 hours): 124.6%; Amount of NGF Production ([2]; 250 μM, 20 hours): 308.5% and 192.8%; Amount of NGF Production ([2]; 500 μM, 20 hours): 351.1% and 382.2% and 328.5% and 231.9%; Amount of NGF Production ([2]; 1000 μM, 20 hours): 256.2% |
| O=c1c(O)c(-c2cc(O)c(O)c(O)c2)oc2cc(O)cc(O)c12 [myricetin] | no cases of death | 187% | 543% | 454% |  |
| COc1cc2c(c(O)c1C(=O)/C=C/c1ccc(O)cc1)CC(O)C(C)(C)O2 (centres unmarked) [xanthohumol B] | no cases of death |  |  |  |  |
| O=C(O[C@@H]1Cc2c(O)cc(O)cc2O[C@@H]1c1cc(O)c(O)c(O)c1)c1cc(O)c(O)c(O)c1 [epigallocatechin gallate] | no cases of death | 175% | 160% |  |  |
| O=C(/C=C/c1ccc(O)c(O)c1)O[C@@H]1C[C@@](O)(C(=O)O)C[C@@H](O)[C@@H]1O [neochlorogenic acid, 5-caffeoyl-quinic acid] | no cases of death |  |  |  |  |
| COC(=O)/C=C/c1ccc(O)c(O)c1 [Caffeic Acid Methyl Ester, caffeic acid methyl ester] |  |  |  |  | Amount of NGF Production ([2]; 0.0625 mg/ml): 824.4%; Amount of NGF Production ([2]; 0.125 mg/ml): 889.6% |
| O=C(O)c1cc(O)c(O)c(O)c1 [gallic acid] | no cases of death | 112% | 217% | 576% |  |
| O=c1c(O)c(-c2ccc(O)cc2)oc2cc(O)cc(O)c12 [kaemferol] | no cases of death |  |  |  |  |
| O=c1c(O)c(-c2ccc(O)c(O)c2)oc2cc(O)cc(O)c12 [quercetin] | no cases of death |  | 139% | 304% |  |
| O=c1cc(-c2ccc(O)c(O)c2)oc2cc(O)c([C@@H]3O[C@H](CO)[C@@H](O)[C@H](O)[C@H]3O)c(O)c12 [isoorientin] | no cases of death |  |  |  |  |
| C=C(C)C(O)Cc1c(O)cc(OC)c(C(=O)/C=C/c2ccc(O)cc2)c1O (centres unmarked) [xanthohumol D] | no cases of death |  |  |  |  |
| COc1cc(O)c(CC=C(C)C)c2c1C(=O)CC(c1ccc(O)cc1)O2 (centres unmarked) [isoxanthohumol] |  |  |  |  | Amount of NGF Production ([2]; 50 μM, 20 hours): 110.7%; Amount of NGF Production ([2]; 100 μM, 20 hours): 121.4%; Amount of NGF Production ([2]; 200 μM, 20 hours): 198.0% |
| O=C(O)/C=C/c1ccc(O)c(O)c1 [caffeic acid] | no cases of death | 85% | 117% | 196% | Amount of HGF Production ([1]; 1000 μM): 92%; Amount of NGF Production ([2]; 62.5 μM, 20 hours): 97.8%; Amount of NGF Production ([2]; 125 μM, 20 hours): 199.5%; Amount of NGF Production ([2]; 250 μM, 20 hours): 221.2% and 227.8%; Amount of NGF Production ([2]; 500 μM, 20 hours): 287.9%; Amount of NGF Production ([2]; 1000 μM, 20 hours): 269.3% |
| CCOC(=O)/C=C/c1ccc(O)c(O)c1 [Caffeic Acid Ethyl Ester, caffeic acid ethyl ester] |  |  |  |  | Amount of NGF Production ([2]; 0.0625 mg/ml): 1279.1% |
